US20120082623A1, “SHH Regulation and Methods Thereof” (priority 2009, published 2012)
Entries after “also recorded” stand apart in the source; their conditions may differ.

Experiments:
[1] = system: Shh pathway; experiment: Cyclopamine injection into soleus/calf muscle; GDNF and CNTF expression by qtPCR; type: in vivo, mouse; conditions: for dose dependence of neurotrophic factor up-regulation: soleus of endstage G93A SOD animals, 0.5, 1, or 2 μg
[2] = system: Th expressing dopaminergic neurons in the substantia nigra pars compacta; experiment: MPTP paradigm with and without cyclopamine; stereological quantification of Th+ cells
[3] = system: Shh-nLZ C/C; Dat-Cre mutant mice; experiment: Gait dynamics on treadmill (DigiGait) after acute L-Dopa or THP in mice with Shh ablation from DA neurons; type: in vivo, mouse; conditions: for increased absolute paw angle / reduced brake time / Brake-Stride ratio: 12 month old mutant animals; for reduced brake time / Brake-Stride ratio: THP 3 mg/kg IP, 30 minutes prior
Text: Given the involvement of the basal ganglia in the production of gait patterns, gait dynamics by ventral plane videography of mice walking on a translucent treadmill was investigated (Digigait system, Mouse specifics, Inc.), from which comparative temporal, spatial and force indices of gait were derived (Hampton et al., Physiol Behav. 2004 Sep. 15; 82(2-3):381-9; Amende et al., J Neuroeng Rehabil. 2005 Jul. 25; 2:20) of experimental and control animals from 3 to 16 months.
Either drug or vehicle control 30 minutes prior to the analysis of gait dynamics was injected in 12 month old animals. […] (FIG. 39D). […] (FIG. 39B). […] (FIG. 40C).
Gait dynamics by ventral plane videography of mice walking on a translucent treadmill (Digigait system, Mouse specifics, Inc.) were investigated, from which comparative temporal, spatial and force indices of gait were derived (Hampton et al., 2010) of Shh-nLZ^C/C; Dat-Cre—and control animals from 3 to 16 months of age (Table 1). Since altered posture can confound comparative gait analysis based on absolute measures, further analysis of locomotion on the tread mill was focused on gait length variability and relative indices of gait dynamics (relative time allotted to Swing, Brake, Propel and Stance phases) and foot angle. In Shh-nLZ^C/C; Dat-Cre mutants, gait length coefficient of variability was 30% increased at 10 months of age (FIG. 48C).
Many of the locomotion disturbances observed in Shh-nLZ^C/C; Dat-Cre were reminiscent of the functional hall marks of Parkinson's spectrum diseases which are characterized by a general impoverishment of locomotion, reduced fluidity of movement, difficulties in initiating and terminating locomotion, and increased stride length variability (Hausdorff et. al, 1998). Whether dopamine substitution by L-Dopa and the muscarinic antagonist trihexiphenidyl (THP), drugs of proven efficacy in the management of symptoms of PD related diseases, will modify acutely the locomotion deficits of Shh-nLZ^C/C; Dat-Cre mice, was tested.
Spontaneous motor activity was measured in an open field arena using automatic tracking at 6 Hz by an EthoVision 3.1 system (Noldus Information Technology, Leesburg, Va.). Derivation of acceleration and deceleration profiles and indices for turning bias and locomotion complexity is described below. Analysis of gait parameters by forced locomotion was performed by ventral plane videography on a translucent tread mill as described (Digigait, Inc.; Hampton et al., 2010).

[4] = system: Shh-nLZ C/C; Dat-Cre mutant mice; experiment: Kinematic analysis of spontaneous locomotion (open field) after L-Dopa or THP; type: in vivo, mouse; conditions: phase III mutant animals
Description: In particular, Bradykinesia is observed in PD. Bradykinesia is the slowed ability to start and continue movements, and impaired ability to adjust the body's position. […] There were no significant differences in the maximal speed that control and mutant mice can travel at (FIG. 40E). The relative time each animals spends at different speeds during acceleration and deceleration in individual locomotion bouts was analyzed. The numbers of “surges”, that are the reversals from acceleration to deceleration and back within a single locomotion bout, were quantitated. The “speed bin” analysis and quantitation of surges type is schematized in FIG. 40F.
Mesostriatal computations take part in the sequencing of locomotor activity and in the termination of ongoing actions (Jin and Costa, 2010; Ding et al., 2010). These processes can be partially assessed by analysis of the kinematic complexity of individual bouts of locomotion in freely ambulating mice (Benjamini et al. 2011; see also Other Results and Discussion). Quantifying the number of alternations from acceleration to deceleration and back in individual bouts of locomotion of similar duration and overall amplitude (FIG. 63G; see also Other Results and Discussion), a 100% increase in locomotive complexity of Shh-nLZ^C/C; Dat-Cre mutants in phase II but a 40% decrease in complexity in phase III compared to control littermates was observed (FIG. 48F). How much time animals spend traveling at different velocities during individual bouts of locomotion of similar length and amplitude was quantified next (see Other Results and Discussion). In phase II mice spend most time locomoting at initial and at top speeds with no discernable differences between Shh-nLZ; Dat-Cre mutants and control littermates (FIG. 64A-B). In phase III, however, Shh-nLZ^C/C; Dat-Cre animals spend 50% more time at low velocities and 80% less time at submaximal speed levels before reaching maximal velocity (FIG. 48K and FIG. 64C). Shh-nLZ^C/C; Dat-Cre animals also spend more time at sub-maximal speed levels after the animal reached peak velocities in a given bout compared to controls (FIG. 64D). […]
Spontaneous motor activity was measured in an open field arena using automatic tracking at 6 Hz by an EthoVision 3.1 system (Noldus Information Technology, Leesburg, Va.). […]
The open field arena was a polycarbonate cage 30×60×25 cm placed in a sound proof chamber. Locomotion of each mouse was recorded and tracked automatically for 10 minutes after habituation. Motor activity was measured as total distance traveled and turning bias was calculated as the net turning angle divided by distance (degrees/cm). Turning bias was calculated by subtracting the sum of ipsi- to contra-lateral movements and is independent of displacement (Spink et al., 2001).

[5] = system: MPTP-lesioned mice; conditions: oral administration; cited from earlier work
[6] = system: SVZ proliferation; set-up: reduction in SVZ proliferation overall (PCNA) / reduction in proliferation in the C cell compartment (PCNA): concentration or dose not given beside the values; conditions: cited from earlier work; for reduction in SVZ proliferation overall (PCNA) / reduction in proliferation in the C cell compartment (PCNA): systemic MPTP or unilateral 6-OHDA into the nigro-striatal pathway
[7] = biological target: T1, GDNF family receptor (GFR)α1 (Mus musculus, UniProt P97785); conditions: Neuro-2A cells; cited from earlier work
T1 construct: host or cells: Neuro-2A cells
T1 sequence (P97785 25-430): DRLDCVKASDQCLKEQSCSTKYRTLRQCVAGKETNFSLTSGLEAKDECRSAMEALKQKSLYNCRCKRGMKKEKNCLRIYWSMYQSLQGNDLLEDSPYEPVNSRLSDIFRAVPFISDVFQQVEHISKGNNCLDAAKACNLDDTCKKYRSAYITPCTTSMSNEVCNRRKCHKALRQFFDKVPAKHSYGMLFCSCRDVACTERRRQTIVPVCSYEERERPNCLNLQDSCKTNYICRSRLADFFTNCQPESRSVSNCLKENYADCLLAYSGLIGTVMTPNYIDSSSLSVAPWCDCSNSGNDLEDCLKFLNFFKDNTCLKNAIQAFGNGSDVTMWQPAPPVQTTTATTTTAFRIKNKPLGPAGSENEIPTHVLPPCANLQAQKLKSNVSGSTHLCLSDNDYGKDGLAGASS

[8] = system: medial forebrain bundle (mFB); experiment: Unilateral 6-OHDA injection into the medial forebrain bundle; turning bias and gene expression; type: in vivo, mouse; conditions: for Shh transcription in the vMB: wt and heterozygous GDNF mutant mice
[9] = system: ALS patients; conditions: cited from earlier work
[10] = unilateral injection into the soleus of 125 day old G93A SOD transgenic animals
[11] = single systemic dose 1 hour prior to brain harvest
[12] = unilateral striatal deafferentation (Winner et al. 2006)

CC1=C2C[C@H]3[C@@H](CC=C4C[C@@H](O)CC[C@@]43C)[C@@H]2CC[C@]12O[C@@H]1C[C@H](C)CN[C@H]1[C@H]2C [cyclopamine]
up regulation of GDNF expression in the muscle ([1]; injection into calf muscles of control animals): 20 fold | effect on GDNF expression in adult muscles ([1]; injection into limb muscle of wild type (wt) and G93A SOD1 mice): up regulation of GDNF expression | up-regulation of CNTF ([1]; injection into the calf muscles of end stage G93A SOD mice): 20 fold | maximal up regulation of GDNF, fold change in gene expression over control side ([1]; right soleus of 125 day old G93A SOD transgenic animals, 1 mg of Cyclopamine, 30 h post injection): 27 fold | maximal upregulation of CNTF, fold change in gene expression over control side ([1]; right soleus of 125 day old G93A SOD transgenic animals, 2 mg of cyclopamine, 30 h post injection): 20 fold | dose dependence of neurotrophic factor up-regulation [1]: dose dependent up-regulation of neurotrophic factor expression | dose dependence of neurotrophic factor up-regulation ([1]; listed as Cyclopamine): dose dependent up-regulation of GDNF and CNTF | increase in CNTF expression over the saline injected contra lateral control soleus [1, 10]: 8 fold | increase in GDNF expression over the saline injected contra lateral control soleus [1, 10]: 12 fold | reduction in Th+ cells in the ventral midbrain compared to control animals ([2]; MPTP plus cyclopamine 50 mg/kg/day by osmotic micropump, n=1): 21% | effect on MPTP induced neurodegeneration ([2]; MPTP plus cyclopamine 50 mg/kg/day, n=1): statistically significant reduction in neurodegeneration

OC(CCN1CCCCC1)(c1ccccc1)C1CCCCC1 (centres unmarked) [THP, Trihexyphenidyl]
increased absolute paw angle [3]: not by THP | reduced brake time / Brake-Stride ratio ([3]; L-Dopa 20 mg/kg SC): normalized by THP; also recorded: normalized Brake Stride ratios to control levels; also recorded: normalized Brake-Stride ratios to control levels | deficits in the initiation of acceleration and deceleration (time at low speeds) [4]: partially normalized; also recorded: normalize the deficit during locomotion initiation; also recorded: ameliorated the deficits in the initiation of acceleration and deceleration; also recorded: ameliorate the deficits at low speeds | time spent locomoting at high / sub-maximal speeds [4]: Neither drug effected the time spend locomoting at sub-maximal speeds; also recorded: not those observed at higher speeds; also recorded: neither drug normalized the time; also recorded: do not normalize the differences at high locomotion speeds

C[C@H]1CC[C@@]2(OC1)O[C@H]1C[C@H]3[C@@H]4CC[C@@H]5C[C@@H](O)CC[C@]5(C)[C@H]4CC[C@]3(C)[C@H]1[C@@H]2C [PYM50028]
loss of dopaminergic neurons from the substantia nigra [5]: attenuated the loss of dopaminergic neurons from the substantia nigra | striatal GDNF [5]: significant elevation of striatal GDNF

N[C@@H](Cc1ccc(O)c(O)c1)C(=O)O [L-Dopa, Levodopa]
increased absolute paw angle [3]: normalized the alterations in paw angles | reduced brake time / Brake-Stride ratio ([3]; L-Dopa 20 mg/kg SC): did not correct the reduction in brake time | reduced brake time / Brake-Stride ratio ([3]; L-Dopa 20 mg/kg SC, listed as L-DOPA): not L-DOPA | increased absolute paw angle ([3]; listed as L-DOPA): normalized by L-DOPA | Brake-Stride ratios ([3]; experimental and control animals, L-Dopa 20 mg/kg SC): reduced Brake-Stride ratios in both experimental and control animals | deficits in the initiation of acceleration and deceleration (time at low speeds) [4]: partially normalized; also recorded: normalize the deficit during locomotion initiation; also recorded: ameliorated the deficits in the initiation of acceleration and deceleration; also recorded: ameliorate the deficits at low speeds | time spent locomoting at high / sub-maximal speeds [4]: Neither drug effected the time spend locomoting at sub-maximal speeds; also recorded: not those observed at higher speeds; also recorded: neither drug normalized the time; also recorded: do not normalize the differences at high locomotion speeds

CN1CC=C(c2ccccc2)CC1 [MPTP, 1-methyl-4-phenyl-1,2,3,6-tetrahydropyridine]
reduction in SVZ proliferation overall (PCNA) [6]: 40% | reduction in proliferation in the C cell compartment (PCNA) [6]: 50% | reduction in the numbers of Th+ cells compared to vehicle controls ([2]; MPTP 30 mg/kg/day for 4 days, day 33, n=5): 39%

CCCN(CCC)CCc1cccc2c1CC(=O)N2 [Ropinirole]
mitotic activity of the SVZ (PCNA+ cells) on the lesioned side [6, 11]: restores the mitotic activity of the SVZ | proliferative index on the unlesioned side [6, 11]: increases the proliferative index on the unlesioned side

CCN(CC)CCCC(C)Nc1cc(/C=C/c2ccccc2Cl)nc2cc(Cl)ccc12 (centres unmarked) [XIB4035]
neurotrophic effects [7]: mimics the neurotrophic effects of GDNF

NCCc1cc(O)c(O)cc1O [6-OHDA, 6-hydroxy-dopamine]
GDNF and ChAT transcription in the striatum [8]: ipsi-lateral up-regulation of GDNF and ChAT transcription in the striatum | expression of Th in the vMB [8]: not affected | turning bias [8]: contra lateral turning bias | Shh transcription in the vMB [8]: up-regulation of Shh transcription in the ipsilateral ventral midbrain | Shh transcription in the vMB ([8]; listed as 6 OH-DA): ipsi-lateral up-regulation of Shh transcription in the vMB | GDNF transcription in the striatum ([8]; wt animals): No up regulation of GDNF transcription was detected | reduction in SVZ proliferation overall (PCNA) [6]: 40% | reduction in proliferation in the C cell compartment (PCNA) [6]: 50% | increase in the production of newly born Pax6+, TH+ periglomerular DA neurons in the olfactory bulb ipsilateral to the lesion [6, 12]: threefold | reduction in proliferation within the SVZ [6, 12]: 40%

Nc1nc2ccc(OC(F)(F)F)cc2s1 [Riluzole]
measures of function [9]: has not been shown to have significant effect on measures of function
